Reference: patent US20110021623A1, “SYSTEM AND METHODS OF MELANOMA PREVENTION” (Regents of the University of New Mexico, priority 2006, published 2011)
Read-outs that look alike come from different tables or passages of the source.

What was measured:
[1] = tested on: mouse melanocyte cell line (B16); assay: DNA adduct assay (13C tyrosine enrichment, isotope ratio mass spectrometry); assay type: cell-based; conditions: B16 cells, 300 μM PTU immediately after 20 min full spectrum UV, 5 μM 13C tyrosine 1 hour after UV, DNA isolated after 4 hours
Procedure: FIG. 4 is a graph illustrating a DNA adduct assay. Mouse melanocyte cell line (B16) was incubated with 300 μM phenylthiourea (PTU) immediately after ultraviolet (UV) radiation exposure. After 20 minutes of full spectrum ultraviolet (UV) radiation exposure, 5 μM ^13C tyrosine was added 1 hour after ultraviolet (UV) radiation exposure. After 4 hours, DNA was isolated and adducts determined as an increase in ^13C enrichment over baseline after combustion and isotope ratio mass spectrometry.

[2] = tested on: mouse melanocyte cell line (B16); assay: Melanocyte survival by trypan blue exclusion after solar simulated UV exposure; assay type: cell-based; conditions: for Melanocyte survival (viability) in ultraviolet (UV) exposed cells: 20 min solar simulated UV (~15 MEDS), increasing doses of inhibitor after exposure, trypan blue exclusion 24 hours after UV
Procedure: FIG. 3 is a graph illustrating death of melanocytes with tyrosinase inhibitors applied subsequent to ultraviolet (UV) radiation exposure. The graph illustrates results from a study conducted with mice melanocyte cell line (B16). The mouse melanocyte cell line (B16) was exposed to solar simulated ultraviolet (UV) radiation for 20 minutes. The solar ultraviolet (UV) radiation was simulated using a 300 W Xe solar simulator, equivalent to approximately 15 Minimal Erythemal Doses (MEDS), or equivalent to strong sunburn. After ultraviolet (UV) radiation exposure, cells were treated with increasing doses of the following tyrosinase inhibitors: kojic acid (shown in FIG. 3A) and methyl gentisate (shown in FIG. 3B). Melanocyte survival was determined by trypan blue exclusion 24 hours after ultraviolet (UV) radiation exposure. It was shown that there was no effect of tyrosinase inhibitors on the survival in non-ultraviolet (UV) exposed cells (not shown in FIG. 3). […] Preventing quinones from passing out of the melanosome substantially protects melanocytes from DNA damage.

NC(=S)Nc1ccccc1 [PTU, phenylthiourea]
DNA adducts (13C enrichment over baseline, delta value) [1]: greatly decreases DNA adducts

O=c1cc(CO)occ1O [kojic acid]
Melanocyte survival (viability) in ultraviolet (UV) exposed cells ([2]; B16 cells): dose dependent increase in viability | Melanocyte survival in non-ultraviolet (UV) exposed cells ([2]; B16 cells, no UV exposure, trypan blue exclusion): no effect

COC(=O)c1cc(O)ccc1O [methyl gentisate]
Melanocyte survival in non-ultraviolet (UV) exposed cells [2]: no effect | Melanocyte survival (viability) in ultraviolet (UV) exposed cells ([2]; B16 cells): dose dependent increase in viability
